Measurements from patent US11787785B2 (NOVARTIS AG, priority 2021, dated 2023).
Read-outs that look alike come from different tables or passages of the source.

Target: T1, WIZ protein (HiBit-WIZ fusion protein) (Homo sapiens, UniProt O95785+Q96SW2)
T1 construct: expressed in transfected cells
Test: Quantification of WIZ protein levels in HiBit tag fusion protein assay (WIZ HiBit assay in 293T cells)
Format: cell-based
Parameters: remaining activity / Dmax: dose or concentration left out as unconfirmed
Procedure, shortened: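 HiBit-tagged WIZ (N-terminal tag, HSVTK promoter) stably expressed single-copy in 293T cells; 10-point 1:5 compound series, top 25 μM, ~18 h at 37 °C. Lytic HiBit/LgBit luminescence read; Amax = curve-fitted % WIZ-HiBit remaining at 25 μM, DMSO normalized to 100%.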

[1] = HEK-293T, 100 − Amax, at 25 uM; 293T cells; read-out: % degradation of WIZ (100 − Amax)
[2] = HEK-293T, DMSO-normalized, curve-fitted percentage of WIZ-HiBit remaining at 25 uM; 293T cells; read-out: WIZ Amax
[3] = WIZ HiBit assay in 293T cells; 10-point, 5-fold dose response, highest concentration 25 μM, about 18 hours; read-out: WIZ AC50

T1 sequence (O95785 whole entry, the tested form may be a part): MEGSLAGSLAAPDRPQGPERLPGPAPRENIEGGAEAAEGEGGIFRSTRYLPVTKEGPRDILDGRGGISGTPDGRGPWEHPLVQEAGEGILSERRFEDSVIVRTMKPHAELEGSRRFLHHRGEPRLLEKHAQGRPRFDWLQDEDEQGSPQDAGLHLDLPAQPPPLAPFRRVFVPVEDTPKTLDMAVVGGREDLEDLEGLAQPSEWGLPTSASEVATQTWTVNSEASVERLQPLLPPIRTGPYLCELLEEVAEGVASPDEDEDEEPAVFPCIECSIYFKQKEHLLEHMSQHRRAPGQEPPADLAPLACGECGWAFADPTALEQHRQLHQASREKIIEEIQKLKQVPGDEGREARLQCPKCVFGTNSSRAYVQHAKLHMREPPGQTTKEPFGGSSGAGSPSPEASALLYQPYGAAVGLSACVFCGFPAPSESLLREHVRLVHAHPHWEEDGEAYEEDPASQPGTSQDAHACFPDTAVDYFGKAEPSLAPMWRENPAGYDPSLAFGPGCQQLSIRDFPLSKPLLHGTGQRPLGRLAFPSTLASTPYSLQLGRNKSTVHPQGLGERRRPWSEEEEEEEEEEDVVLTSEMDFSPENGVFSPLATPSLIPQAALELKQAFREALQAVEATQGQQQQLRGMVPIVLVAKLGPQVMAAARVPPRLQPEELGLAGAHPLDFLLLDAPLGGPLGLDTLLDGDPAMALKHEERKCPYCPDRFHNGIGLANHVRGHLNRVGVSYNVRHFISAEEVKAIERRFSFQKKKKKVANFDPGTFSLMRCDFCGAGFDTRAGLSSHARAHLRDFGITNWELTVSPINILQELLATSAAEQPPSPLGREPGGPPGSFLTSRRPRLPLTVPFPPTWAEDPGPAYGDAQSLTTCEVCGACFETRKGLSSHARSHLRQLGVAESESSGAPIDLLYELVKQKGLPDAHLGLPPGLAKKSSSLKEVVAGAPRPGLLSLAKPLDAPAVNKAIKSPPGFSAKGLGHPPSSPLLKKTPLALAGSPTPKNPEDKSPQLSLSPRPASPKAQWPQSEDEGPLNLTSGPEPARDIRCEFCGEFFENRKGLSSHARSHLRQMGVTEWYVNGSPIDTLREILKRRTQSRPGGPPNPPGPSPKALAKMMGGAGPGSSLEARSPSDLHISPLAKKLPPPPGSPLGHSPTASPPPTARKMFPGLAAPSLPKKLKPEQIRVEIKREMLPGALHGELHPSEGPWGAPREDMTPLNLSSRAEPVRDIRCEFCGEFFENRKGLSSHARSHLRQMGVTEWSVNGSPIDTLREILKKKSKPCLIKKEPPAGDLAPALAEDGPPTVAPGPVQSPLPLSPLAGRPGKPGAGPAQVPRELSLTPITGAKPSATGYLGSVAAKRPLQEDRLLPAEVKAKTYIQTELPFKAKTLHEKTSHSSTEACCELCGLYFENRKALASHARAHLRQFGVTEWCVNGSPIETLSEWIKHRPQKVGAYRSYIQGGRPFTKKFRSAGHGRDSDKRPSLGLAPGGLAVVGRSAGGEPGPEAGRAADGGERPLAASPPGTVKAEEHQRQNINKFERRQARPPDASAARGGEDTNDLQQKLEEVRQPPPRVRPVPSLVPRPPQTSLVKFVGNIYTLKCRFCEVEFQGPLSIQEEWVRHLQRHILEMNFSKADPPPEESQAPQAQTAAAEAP
T1 sequence (Q96SW2 whole entry, the tested form may be a part): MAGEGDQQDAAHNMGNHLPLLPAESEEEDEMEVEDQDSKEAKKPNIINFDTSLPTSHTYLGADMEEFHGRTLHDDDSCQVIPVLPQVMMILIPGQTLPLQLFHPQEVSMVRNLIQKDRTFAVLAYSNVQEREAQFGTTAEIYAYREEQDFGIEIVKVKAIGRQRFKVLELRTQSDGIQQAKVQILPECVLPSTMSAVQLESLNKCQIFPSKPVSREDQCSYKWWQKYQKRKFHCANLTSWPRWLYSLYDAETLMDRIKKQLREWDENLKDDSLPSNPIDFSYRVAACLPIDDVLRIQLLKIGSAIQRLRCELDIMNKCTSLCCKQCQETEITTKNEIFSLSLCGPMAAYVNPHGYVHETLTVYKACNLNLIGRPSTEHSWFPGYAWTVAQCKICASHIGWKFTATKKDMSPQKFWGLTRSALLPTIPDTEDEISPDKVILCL
T1 sequence (Q16531 whole entry partner, the tested form may be a part): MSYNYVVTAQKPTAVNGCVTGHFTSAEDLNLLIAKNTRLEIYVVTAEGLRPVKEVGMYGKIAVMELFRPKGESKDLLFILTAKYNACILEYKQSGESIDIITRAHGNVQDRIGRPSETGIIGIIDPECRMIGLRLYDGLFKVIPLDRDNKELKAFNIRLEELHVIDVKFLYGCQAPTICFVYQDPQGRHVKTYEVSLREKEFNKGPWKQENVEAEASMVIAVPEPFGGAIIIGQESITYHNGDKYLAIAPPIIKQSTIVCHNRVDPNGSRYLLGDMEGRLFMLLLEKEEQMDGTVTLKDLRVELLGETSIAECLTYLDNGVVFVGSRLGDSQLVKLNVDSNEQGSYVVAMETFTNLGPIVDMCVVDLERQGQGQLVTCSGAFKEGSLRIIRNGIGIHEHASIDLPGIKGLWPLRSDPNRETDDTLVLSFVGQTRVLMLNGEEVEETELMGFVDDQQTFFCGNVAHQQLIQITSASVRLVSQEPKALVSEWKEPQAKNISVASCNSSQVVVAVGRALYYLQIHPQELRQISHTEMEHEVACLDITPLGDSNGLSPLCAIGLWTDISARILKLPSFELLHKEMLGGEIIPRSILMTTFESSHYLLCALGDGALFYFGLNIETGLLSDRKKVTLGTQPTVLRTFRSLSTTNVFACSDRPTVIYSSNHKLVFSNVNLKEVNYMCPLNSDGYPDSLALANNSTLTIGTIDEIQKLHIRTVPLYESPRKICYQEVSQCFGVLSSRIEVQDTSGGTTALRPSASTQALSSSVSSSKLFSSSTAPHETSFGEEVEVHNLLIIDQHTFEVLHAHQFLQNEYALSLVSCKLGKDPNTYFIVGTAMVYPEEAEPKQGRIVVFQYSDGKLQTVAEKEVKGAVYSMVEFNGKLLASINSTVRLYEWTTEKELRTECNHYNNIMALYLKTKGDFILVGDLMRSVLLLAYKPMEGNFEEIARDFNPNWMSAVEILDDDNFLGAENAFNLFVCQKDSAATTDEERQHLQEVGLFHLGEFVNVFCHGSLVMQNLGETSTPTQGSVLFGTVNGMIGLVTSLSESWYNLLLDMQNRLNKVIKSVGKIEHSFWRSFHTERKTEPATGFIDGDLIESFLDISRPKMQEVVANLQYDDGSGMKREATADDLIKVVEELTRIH

SMILES | Dmax (HEK-293T, read-out: % degradation of WIZ (100 − Amax)) [%] | remaining activity (HEK-293T, read-out: WIZ Amax) [%] | DC50 (read-out: WIZ AC50; WIZ HiBit assay in 293T cells; 10-point, 5-fold dose response, highest concentration 25 μM, about 18 hours) [nM] | Dmax at 25 µM [1] [%] | remaining activity at 25 µM [2] [%] | DC50 [3] [nM]
CCN(C)C(=O)N1CC[C@@H](Cc2ccn3ncc(N4CCC(=O)NC4=O)c3c2)C[C@@H]1C [Example 299, (2S,4R)-4-((3-(2,4-dioxotetrahydropyrimidin-1(2H)-yl)pyrazolo[1,5-a]pyridin-5-yl)methyl)-N-ethyl-N,2-dimethylpiperidine-1-carboxamide] | 82 | 18 | 9 |  |  | 
C[C@H]1CN(Cc2ccn3ncc(N4CCC(=O)NC4=O)c3c2)CCN1CC1(C)CCC1 [Example 322, (S)-1-(5-((3-methyl-4-((1-methylcyclobutyl)methyl)piperazin-1-yl)methyl)pyrazolo[1,5-a]pyridin-3-yl)dihydropyrimidine-2,4(1H,3H)-dione] |  |  |  | 86 | 14 | 31
C[C@H]1CN(Cc2ccn3ncc(N4CCC(=O)NC4=O)c3c2)CCN1CC1CCC1 [Example 213, (S)-1-(5-((4-(cyclobutylmethyl)-3-methylpiperazin-1-yl)methyl)pyrazolo[1,5-a]pyridin-3-yl)dihydropyrimidine-2,4(1H,3H)-dione] |  |  |  | 81 | 19 | 48
CC(C)(C)CN1CCC(Cc2ccn3ncc(N4CCC(=O)NC4=O)c3c2)CC1 [Example 110] |  |  |  | 79 | 21 | 44
CS(=O)(=O)N1CCC(Cc2ccn3ncc(N4CCC(=O)NC4=O)c3c2)CC1 [Example 90] |  |  |  | 77 | 23 | 2000
C[C@H]1CN(CC2CCOCC2)CCN1Cc1ccn2ncc(N3CCC(=O)NC3=O)c2c1 [Example 223] |  |  |  | 51 | 49 | 877
O=C1CCN(c2cnn3ccc(CC4CCN(C(=O)CCc5ccccc5)CC4)cc23)C(=O)N1 [Example 102] |  |  |  | 40 | 60 | 165
O=C1CCN(c2cnn3ccc(CN4C[C@H]5CC[C@@H](C4)N5Cc4cccnc4)cc23)C(=O)N1 [Example 253, 1-(5-(((1R,5S)-8-(pyridin-3-ylmethyl)-3,8-diazabicyclo[3.2.1]octan-3-yl)methyl)pyrazolo[1,5-a]pyridin-3-yl)dihydropyrimidine-2,4(1H,3H)-dione] |  |  |  | 23 | 77 | 531
C[C@H]1CN(Cc2ccn3ncc(N4CCC(=O)NC4=O)c3c2)CCN1C[C@@H]1CCC(F)(F)C1 [Example 319, 1-(5-(((S)-4-(((R)-3,3-difluorocyclopentyl)methyl)-3-methylpiperazin-1-yl)methyl)pyrazolo[1,5-a]pyridin-3-yl)dihydropyrimidine-2,4(1H,3H)-dione] |  |  |  | 78 | 21 | 4
CC(C)CN1CCC(C(C)c2ccn3ncc(N4CCC(=O)NC4=O)c3c2)CC1 (stereo not drawn) [Example 267, 1-(5-(1-(1-isobutylpiperidin-4-yl)ethyl)pyrazolo[1,5-a]pyridin-3-yl)dihydropyrimidine-2,4(1H,3H)-dione] |  |  |  | 86 | 14 | 100
C[C@H]1CN(Cc2ccn3ncc(N4CCC(=O)NC4=O)c3c2)CCN1C1CCCCC1 [Example 333] |  |  |  | 87 | 13 | 68
C[C@@H]1CN(CC2CCCCC2)CCN1Cc1ccn2ncc(N3CCC(=O)NC3=O)c2c1 [Example 218] |  |  |  | 71 | 29 | 68
CC(C)(F)CN1CCN(Cc2ccn3ncc(N4CCC(=O)NC4=O)c3c2)CC1 [Example 169] |  |  |  | 55 | 45 | 326
C[C@H]1CN(CC2CCCO2)CCN1Cc1ccn2ncc(N3CCC(=O)NC3=O)c2c1 (stereo partly drawn) [Example 225] |  |  |  | 32 | 68 | 1050
